Reference: PMC7486443, “Generation of Phenothiazine with Potent Anti-TLK1 Activity for Prostate Cancer Therapy” (iScience, 2020)

Tests used:
Assay in all cases: biochemical
Parameters in all cases: DiscoverX KINOMEscan scanMAX competition binding panel, single concentration, percent of control; remaining binding: dose or concentration left out as unconfirmed
Conditions in all cases: KINOMEscan binding, percent of control; read-out: Table S4_SCANMAX REPORT - related to Fig. 1 / Percent Control
[1] = biological target: WEE2 (Homo sapiens, UniProt P0C1S8)
[2] = biological target: T1, JAK3(JH1domain-catalytic) (Homo sapiens, UniProt P52333)
T1 construct: JH1domain-catalytic

[3] = biological target: T2, ABL1(F317L)-phosphorylated (Homo sapiens, UniProt P00519, F317L)
T2 construct: phosphorylated

[4] = biological target: ITK (Homo sapiens, UniProt Q08881)
[5] = biological target: PIK3CA(E542K) (Homo sapiens, UniProt P42336, E542K)
[6] = biological target: SLK (Homo sapiens, UniProt Q9H2G2)
[7] = biological target: EPHB4 (Homo sapiens, UniProt P54760)
[8] = biological target: T3, MEK5 (Homo sapiens, UniProt Q13163)
T3 construct: gene MAP2K5

[9] = biological target: AURKA (Homo sapiens, UniProt O14965)
[10] = biological target: T4, JNK2 (Homo sapiens, UniProt P45984)
T4 construct: gene MAPK9

[11] = biological target: CAMK2B (Homo sapiens, UniProt Q13554)
[12] = biological target: EGFR(L747-S752del, P753S) (Homo sapiens, UniProt P00533, DEL747-752/P753S)
[13] = biological target: IRAK3 (Homo sapiens, UniProt Q9Y616)
[14] = biological target: PIK3CA(I800L) (Homo sapiens, UniProt P42336, I800L)
[15] = biological target: HCK (Homo sapiens, UniProt P08631)
[16] = biological target: T5, MRCKB (Homo sapiens, UniProt Q9Y5S2)
T5 construct: gene CDC42BPB

[17] = biological target: SRPK2 (Homo sapiens, UniProt P78362)
[18] = biological target: PIK3CA(Q546K) (Homo sapiens, UniProt P42336, Q546K)

EPHB4, sequence (P54760 whole entry): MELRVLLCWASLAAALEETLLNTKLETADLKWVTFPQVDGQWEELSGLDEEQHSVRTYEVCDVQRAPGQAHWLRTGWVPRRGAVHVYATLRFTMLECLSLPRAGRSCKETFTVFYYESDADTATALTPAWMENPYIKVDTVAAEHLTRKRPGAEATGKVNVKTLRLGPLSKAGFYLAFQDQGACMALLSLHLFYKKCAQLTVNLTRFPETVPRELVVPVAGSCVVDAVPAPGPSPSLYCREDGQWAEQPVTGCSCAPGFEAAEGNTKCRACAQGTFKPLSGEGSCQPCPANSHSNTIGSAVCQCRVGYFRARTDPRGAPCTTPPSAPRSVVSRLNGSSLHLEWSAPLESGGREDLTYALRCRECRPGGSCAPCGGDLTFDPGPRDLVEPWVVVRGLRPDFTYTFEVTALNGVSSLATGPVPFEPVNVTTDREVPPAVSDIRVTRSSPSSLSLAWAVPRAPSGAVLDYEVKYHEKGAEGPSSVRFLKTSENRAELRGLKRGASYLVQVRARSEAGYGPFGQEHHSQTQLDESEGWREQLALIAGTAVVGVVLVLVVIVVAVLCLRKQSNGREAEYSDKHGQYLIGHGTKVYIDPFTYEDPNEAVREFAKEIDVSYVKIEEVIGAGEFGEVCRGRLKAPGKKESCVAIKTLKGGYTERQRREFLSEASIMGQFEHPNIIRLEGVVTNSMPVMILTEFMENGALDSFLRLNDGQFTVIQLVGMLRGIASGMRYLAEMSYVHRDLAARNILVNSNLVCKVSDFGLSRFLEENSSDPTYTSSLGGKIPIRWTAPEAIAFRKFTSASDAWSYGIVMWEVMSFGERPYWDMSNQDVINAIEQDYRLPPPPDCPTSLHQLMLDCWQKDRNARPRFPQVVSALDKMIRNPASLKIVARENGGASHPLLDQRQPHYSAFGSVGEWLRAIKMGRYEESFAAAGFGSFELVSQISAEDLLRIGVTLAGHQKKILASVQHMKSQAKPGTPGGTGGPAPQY
T4 sequence (P45984 whole entry): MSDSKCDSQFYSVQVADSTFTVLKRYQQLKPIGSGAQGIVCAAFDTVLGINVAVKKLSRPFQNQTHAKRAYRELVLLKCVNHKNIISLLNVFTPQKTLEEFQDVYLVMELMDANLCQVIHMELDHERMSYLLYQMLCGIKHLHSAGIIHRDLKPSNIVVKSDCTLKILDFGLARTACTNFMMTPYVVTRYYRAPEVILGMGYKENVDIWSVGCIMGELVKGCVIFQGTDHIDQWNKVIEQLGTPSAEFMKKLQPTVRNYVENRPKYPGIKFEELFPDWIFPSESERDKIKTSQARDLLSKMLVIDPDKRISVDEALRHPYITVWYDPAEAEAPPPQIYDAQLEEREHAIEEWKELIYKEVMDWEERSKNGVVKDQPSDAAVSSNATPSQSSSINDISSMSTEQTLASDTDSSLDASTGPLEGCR
AURKA, sequence (O14965 whole entry): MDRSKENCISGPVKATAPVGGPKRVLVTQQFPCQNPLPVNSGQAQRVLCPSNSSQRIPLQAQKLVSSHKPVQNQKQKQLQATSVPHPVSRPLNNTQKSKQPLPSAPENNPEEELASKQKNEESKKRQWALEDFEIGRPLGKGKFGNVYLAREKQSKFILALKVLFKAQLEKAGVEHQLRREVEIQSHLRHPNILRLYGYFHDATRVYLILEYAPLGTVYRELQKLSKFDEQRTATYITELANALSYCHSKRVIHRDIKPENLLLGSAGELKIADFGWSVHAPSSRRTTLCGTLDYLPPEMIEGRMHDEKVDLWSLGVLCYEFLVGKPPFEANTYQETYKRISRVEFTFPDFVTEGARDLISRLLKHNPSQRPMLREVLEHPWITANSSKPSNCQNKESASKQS
T5 sequence (Q9Y5S2 whole entry): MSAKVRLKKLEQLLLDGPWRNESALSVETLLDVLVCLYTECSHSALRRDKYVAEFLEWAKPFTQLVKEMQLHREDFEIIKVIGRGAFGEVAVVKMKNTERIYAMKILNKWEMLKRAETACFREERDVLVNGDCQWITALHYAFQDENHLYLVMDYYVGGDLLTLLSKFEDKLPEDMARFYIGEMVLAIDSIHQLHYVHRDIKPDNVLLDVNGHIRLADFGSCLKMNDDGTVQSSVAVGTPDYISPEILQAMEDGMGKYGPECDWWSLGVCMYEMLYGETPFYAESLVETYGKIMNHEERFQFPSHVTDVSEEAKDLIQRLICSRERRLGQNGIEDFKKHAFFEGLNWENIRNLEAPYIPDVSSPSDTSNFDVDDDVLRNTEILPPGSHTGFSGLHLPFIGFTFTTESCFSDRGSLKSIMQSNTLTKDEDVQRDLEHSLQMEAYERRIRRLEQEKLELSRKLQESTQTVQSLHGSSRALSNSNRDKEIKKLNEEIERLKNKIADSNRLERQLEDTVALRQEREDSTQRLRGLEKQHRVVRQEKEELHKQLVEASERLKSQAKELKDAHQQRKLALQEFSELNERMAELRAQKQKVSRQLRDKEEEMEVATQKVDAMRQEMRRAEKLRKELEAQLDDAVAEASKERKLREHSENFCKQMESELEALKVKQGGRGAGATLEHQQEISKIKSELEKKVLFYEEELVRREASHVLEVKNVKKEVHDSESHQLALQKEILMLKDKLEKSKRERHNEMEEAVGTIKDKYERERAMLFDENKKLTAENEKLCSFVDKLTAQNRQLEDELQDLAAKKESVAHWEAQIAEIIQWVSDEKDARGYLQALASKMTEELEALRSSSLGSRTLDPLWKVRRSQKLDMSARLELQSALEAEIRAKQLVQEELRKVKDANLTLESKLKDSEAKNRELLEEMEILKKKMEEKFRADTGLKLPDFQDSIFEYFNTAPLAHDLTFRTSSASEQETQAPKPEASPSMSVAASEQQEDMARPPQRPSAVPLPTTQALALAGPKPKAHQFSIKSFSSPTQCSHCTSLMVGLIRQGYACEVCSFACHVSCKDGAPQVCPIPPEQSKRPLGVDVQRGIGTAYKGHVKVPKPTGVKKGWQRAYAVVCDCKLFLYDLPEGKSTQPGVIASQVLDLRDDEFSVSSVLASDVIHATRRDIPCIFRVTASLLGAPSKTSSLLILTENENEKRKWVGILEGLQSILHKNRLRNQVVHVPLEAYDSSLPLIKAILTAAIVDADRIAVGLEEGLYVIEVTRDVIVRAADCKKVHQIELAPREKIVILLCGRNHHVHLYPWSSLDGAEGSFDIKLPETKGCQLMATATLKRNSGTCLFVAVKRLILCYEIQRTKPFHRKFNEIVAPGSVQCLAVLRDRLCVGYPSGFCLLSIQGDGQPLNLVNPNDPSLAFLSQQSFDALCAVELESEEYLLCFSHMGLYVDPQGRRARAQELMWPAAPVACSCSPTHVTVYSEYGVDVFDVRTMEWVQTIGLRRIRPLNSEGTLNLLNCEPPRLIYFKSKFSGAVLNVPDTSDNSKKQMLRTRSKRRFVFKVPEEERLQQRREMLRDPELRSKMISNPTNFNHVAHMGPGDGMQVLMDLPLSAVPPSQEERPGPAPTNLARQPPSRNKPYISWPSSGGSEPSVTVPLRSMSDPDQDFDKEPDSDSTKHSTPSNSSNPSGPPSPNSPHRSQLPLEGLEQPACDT
SLK, sequence (Q9H2G2 whole entry): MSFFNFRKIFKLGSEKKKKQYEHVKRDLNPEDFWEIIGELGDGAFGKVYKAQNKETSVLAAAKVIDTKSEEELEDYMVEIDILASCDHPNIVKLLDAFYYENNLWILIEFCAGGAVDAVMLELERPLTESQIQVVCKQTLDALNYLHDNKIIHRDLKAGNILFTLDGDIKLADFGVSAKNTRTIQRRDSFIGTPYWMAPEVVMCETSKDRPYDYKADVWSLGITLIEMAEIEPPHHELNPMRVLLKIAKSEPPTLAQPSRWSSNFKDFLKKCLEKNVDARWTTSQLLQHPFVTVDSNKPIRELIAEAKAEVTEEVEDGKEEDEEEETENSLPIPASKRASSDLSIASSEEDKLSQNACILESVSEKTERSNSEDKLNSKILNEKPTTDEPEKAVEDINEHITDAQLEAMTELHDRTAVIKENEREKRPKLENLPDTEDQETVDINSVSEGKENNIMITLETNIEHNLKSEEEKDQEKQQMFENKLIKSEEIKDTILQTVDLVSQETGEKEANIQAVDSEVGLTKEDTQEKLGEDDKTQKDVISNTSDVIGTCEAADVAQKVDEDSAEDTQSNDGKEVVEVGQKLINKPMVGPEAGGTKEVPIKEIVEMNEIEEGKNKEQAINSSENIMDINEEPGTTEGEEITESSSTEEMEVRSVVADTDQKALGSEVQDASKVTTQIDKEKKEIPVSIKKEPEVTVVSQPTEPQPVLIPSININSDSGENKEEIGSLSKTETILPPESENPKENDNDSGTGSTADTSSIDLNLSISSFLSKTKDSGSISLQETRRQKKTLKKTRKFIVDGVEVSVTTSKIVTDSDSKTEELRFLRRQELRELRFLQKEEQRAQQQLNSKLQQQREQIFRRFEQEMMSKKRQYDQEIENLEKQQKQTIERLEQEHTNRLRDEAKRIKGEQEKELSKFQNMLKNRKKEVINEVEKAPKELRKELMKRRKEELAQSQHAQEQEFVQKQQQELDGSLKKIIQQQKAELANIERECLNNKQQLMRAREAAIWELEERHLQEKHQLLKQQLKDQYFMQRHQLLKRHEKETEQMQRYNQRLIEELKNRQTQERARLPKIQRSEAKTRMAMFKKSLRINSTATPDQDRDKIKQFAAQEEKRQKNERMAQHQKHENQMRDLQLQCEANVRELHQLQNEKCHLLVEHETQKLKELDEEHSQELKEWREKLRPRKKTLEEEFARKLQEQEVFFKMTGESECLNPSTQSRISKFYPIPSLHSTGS

c1ccc2c(c1)Sc1ccccc1N2CCN1CCOCC1 [J54]
remaining binding [1]: 100%
remaining binding [2]: 85%
remaining binding [3]: 99%
remaining binding [4]: 100%
remaining binding [5]: 100%
remaining binding [6]: 100%
remaining binding [7]: 100%
remaining binding [8]: 95%
remaining binding [9]: 100%
remaining binding [10]: 84%
remaining binding [11]: 93%
remaining binding [12]: 92%
remaining binding [13]: 90%
remaining binding [14]: 99%
remaining binding [15]: 100%
remaining binding [16]: 95%
remaining binding [17]: 100%
remaining binding [18]: 100%
